Test results published in US11690834B2, “Composition, uses, and methods of treating spinal disc degeneration through sonic hedgehog signaling pathway” (New York Society For the Relief Of The Ruptured and …, priority 2017, dated 2023).
Entries after “also recorded” stand apart in the source; their conditions may differ.

Legend:
[1] = test system: one-year-old mouse disc; details: in vitro; cited from earlier work
[2] = test system: SHH signaling pathway in the intervertebral disc; experiment: Intraperitoneal SAG in adult mice, real-time RT-qPCR of lumbar discs for SHH and its downstream targets; type: in vivo, mouse; details: middle-aged mice, intraperitoneal injection
[3] = test system: SHH signaling pathway in the intervertebral disc; experiment: as above; type: in vivo, mouse; details: i.p., 10 mg/kg body weight, every day for seven days, vs water
Experimental: To test the potential for activation of SHH or SHH signaling for disc therapy and treatment of lower back pain, a small molecule agonist of hedgehog signaling pathway called SAG that activates the smoothened receptor downstream of the ligand was administered to mice. Adult mice were administered intraperitoneally either with water or SAG dissolved in water at a concentration of with 10 mg/kg body weight. The mice were treated every day for seven days. Next day, the lumbar discs were collected for RNA isolation and real-time RT-qPCR analysis for SHH and its downstream targets. […] Upregulation of SHH mRNA expression was also associated with an increase in the expression of its downstream targets Ptch1 and Gli1.

SMILES	ECM production [1]	increase in cell proliferation [1]	stimulation of Hedgehog signaling [1]	expression of ECM protein ACAN [2]	expression of ECM marker Col2 [3]	expression of ECM marker Sox9 [3]	expression of downstream target Gli1 [3]	expression of downstream target Ptch1 [3]	mRNA expression of SHH compared to controls [3]
O=C1Nc2cc(Br)ccc2/C1=C1/Nc2ccccc2/C1=N\O [BIO]	increased	Not observed	increased	–	–	–	–	–	–
CNC1CCC(N(Cc2cccc(-c3ccncc3)c2)C(=O)c2sc3ccccc3c2Cl)CC1 (stereo not drawn) [SAG]	–	–	–	upregulation	increased expression; also recorded: upregulation	increased expression; also recorded: upregulation	increase; also recorded: upregulation	increase; also recorded: upregulation	increased; also recorded: up-regulation
